Reference: US20230096028A1, “BICYCLIC HETEROCYCLYL COMPOUNDS AND USES THEREOF” (Revolution Medicines, Inc., priority 2019, published 2023)
Where a name gives a salt, the structure may show the parent alone. Read-outs that look alike come from different tables or passages of the source.

How the values were obtained:
SOS1 = target: T1, SOS1 (Homo sapiens, UniProt Q07889); assay: Bodipy-FL-GTP Association Assay (SOS1-mediated exchange of KRAS-4B:GDP to KRAS-4B:GTP); format: biochemical; details: SOS1-mediated BODIPY FL GTP exchange on KRAS-4B, 22° C.
T1 construct: SOS1 (Cytoskeleton Inc., Cat. CS-GE02); purchased Cytoskeleton Inc. CS-GE02
T1 sequence (Q07889 564-1049 limits assumed): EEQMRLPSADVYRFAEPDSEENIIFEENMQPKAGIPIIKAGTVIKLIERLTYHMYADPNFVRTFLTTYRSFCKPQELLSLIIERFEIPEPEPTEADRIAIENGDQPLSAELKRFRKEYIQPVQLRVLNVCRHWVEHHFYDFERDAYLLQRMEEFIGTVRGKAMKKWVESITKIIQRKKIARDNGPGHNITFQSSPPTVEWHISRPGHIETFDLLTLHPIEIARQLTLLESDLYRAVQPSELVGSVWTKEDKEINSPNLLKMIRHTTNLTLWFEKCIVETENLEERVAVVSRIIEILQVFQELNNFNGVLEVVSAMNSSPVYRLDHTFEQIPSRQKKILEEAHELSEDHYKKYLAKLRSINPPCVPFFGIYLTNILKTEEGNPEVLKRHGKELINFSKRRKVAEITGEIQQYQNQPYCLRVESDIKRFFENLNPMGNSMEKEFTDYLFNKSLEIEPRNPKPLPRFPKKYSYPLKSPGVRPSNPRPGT
Method: A low IC50 value for a given compound is indicative of high potency of said compound in inhibiting the guanine nucleotide exchange factor (GEF) activity of SOS1 on KRAS-4B in this assay setting.
Reagents: BODIPY FL GTP (ThermoFisher Scientific, Cat. G12411); KRAS4-B (Cytoskeleton Inc., Cat. CSRS03); SOS1 (Cytoskeleton Inc., Cat. CS-GE02); 2×Assay Buffer: 40 mM Tris-HCl, pH 7.5; 100 mM NaCl; 20 mM MgCl2; 0.1 mg/mL BSA; 0.02% NP-40
Assay Procedure: Test compounds were dissolved in DMSO to create 20 mM master stocks. The stocks were diluted in a 3× dilution series in 100% DMSO to achieve 100× compound stocks. A 1 μl spot of each test compound stock was delivered to two adjacent wells of a 96-well assay plate prior to running the assay. Reaction Mix preparation: The following were mixed in order at room temperature to obtain the “Reaction Mix” (5.75 mL 2× Exchange Buffer; 3.22 mL MilliQ ddH2O; 3 μL 5 mM BODIPY FL GTP; 230 μL 50 μM KRAS-4B; 9.203 mL Total volume. Reaction initiation: 80 μL of Reaction Mix was pipetted into each well of a half-area black 96-well plate (Corning, Cat. 3686) containing either a 1 μL spot of DMSO or a 1 μL spot test compound at the concentrations listed above. 20 μL of 1 μM SOS1 was then added to each well to initiate the reaction. For the no GEF control wells this was replaced with 1× exchange buffer. Kinetic measurement: The reaction was monitored in a SpectraMax M2 Microplate Reader (Molecular Devices) under the following protocol: 5 second rapid circular mixing before first read; 61 readings, 30 seconds apart; Assay temperature: 22° C.; Excitation wavelength: 485 nm; Emission wavelength: 513 nm. Data Analysis: The Vmax values for the SOS1-mediated BODIPY FL GTP exchange curves in the presence of test compounds were normalized to the most dilute test sample columns or DMSO only control wells to give the % Activity for each concentration of test compound. Plots of % Activity vs. the Log 10 of the compound concentration were fit by non-linear regression to a 4-parameter logistic model.

[1] = tested on: PC-9 cells (EGFR Ex19Del); assay: Potency Assay: pERK (SOS1 pERK IC50 Assay, AlphaLISA SureFire Ultra p-ERK1/2); format: cell-based; details: Homo sapiens, read-out: SOS1 pERK IC50
In short: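 PC-9 (EGFR Ex19Del) cells plated overnight, then treated 1 h at 37° C. with 10-point 3-fold dilutions (top 10 μM final) in duplicate. Lysate pERK1/2 measured by AlphaLISA SureFire Ultra; IC50 from 4-parameter sigmoidal fit.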

[2] = target: T2, SOS1 catalytic domain (residues 564-1049) (Homo sapiens, UniProt Q07889); assay: Potency Assay: binding affinity to SOS1 using Surface Plasmon Resonance (SPR); design: SOS1 catalytic domain (residues 564-1049) immobilized on a sensor chip; details: immobilized SOS1 catalytic domain (residues 564-1049), read-out: SOS1 SPR Equilibrium Kd
T2 sequence (Q07889 564-1049): T1 sequence (Q07889 564-1049 limits assumed)
In short: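 Avi-tagged SOS1 catalytic domain captured on streptavidin chip (~6000 RU) in 0.01 M HEPES, 0.15 M NaCl, 0.05% P20. Compound dilution series flowed at 50 μL/min for association, then buffer for dissociation, with double reference subtraction. Kd derived from end-of-association binding response plotted against concentration.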

[3] = target: T2, SOS1 catalytic domain (residues 564-1049); assay: Mode of Action Assay: inhibition of SOS1 nucleotide exchange activity (SOS1 TR-FRET IC50 Assay)
[4] = PC-9 cells (EGFR Ex19Del), 1 hour incubation, AlphaLISA p-ERK1/2

IC50 (SOS1) | IC50 [1, 4] | Kd [2] | IC50 [3] | SMILES | IC50 ([1]; PC-9, 1 h)
< 1000 nM | – | – | – | C[C@@H](Nc1nc(Cl)nc2c1CN(C(=O)N1CCOCC1)C2)c1cc(N)cc(C(F)(F)F)c1 [Example 1, N-[(1R)-1-[3-amino-5-(trifluoromethyl)phenyl]ethyl]-2-chloro-6-(morpholine-4-carbonyl)-5H,6H,7H-pyrrolo[3,4-d]pyrimidin-4-amine] | –
1000 to 5000 nM | – | – | – | Cc1nc2c(c(N[C@H](C)c3cc(N)cc(C(F)(F)F)c3)n1)CN(C(=O)N1CCOCC1)CC2 [Example 2, N-[(1R)-1-[3-amino-5-(trifluoromethyl)phenyl]ethyl]-2-methyl-6-(morpholine-4-carbonyl)-5H,6H,7H,8H-pyrido[4,3-d]pyrimidin-4-amine] | –
< 1000 nM | – | – | – | C[C@@H](Nc1nc(Cl)nc2c1CN(C(=O)N1CCOCC1)CC2)c1cc(N)cc(C(F)(F)F)c1 [Example 3, N-[(1R)-1-[3-amino-5-(trifluoromethyl)phenyl]ethyl]-2-chloro-6-(morpholine-4-carbonyl)-5H,6H,7H,8H-pyrido[4,3-d]pyrimidin-4-amine] | –
< 1000 nM | – | – | – | Cc1nc2c(c(N[C@H](C)c3cc(N)cc(C(F)(F)F)c3)n1)CN(C(=O)N1CCOCC1)C2 [Example 4, N-[(1R)-1-[3-amino-5-(trifluoromethyl)phenyl]ethyl]-2-methyl-6-(morpholine-4-carbonyl)-5H,6H,7H-pyrrolo[3,4-d]pyrimidin-4-amine] | –
< 1000 nM | – | – | – | C[C@@H](Nc1nc(Cl)nc2c1CN(C(=O)C1CCOC1)C2)c1cc(N)cc(C(F)(F)F)c1 (stereo partly drawn) [Example 5, N-[(1R)-1-[3-amino-5-(trifluoromethyl)phenyl]ethyl]-2-chloro-6-(oxolane-3-carbonyl)-5H,6H,7H-pyrrolo[3,4-d]pyrimidin-4-amine] | –
1000 to 5000 nM | – | – | – | Cc1nc2c(c(N[C@H](C)c3cc(N)cc(C(F)(F)F)c3)n1)CN(C(=O)[C@H]1CCOC1)CC2 [Example 6, N-[(1R)-1-[3-amino-5-(trifluoromethyl)phenyl]ethyl]-2-methyl-6-(oxolane-3-carbonyl)-5H,6H,7H,8H-pyrido[4,3-d]pyrimidin-4-amine] | –
1000 to 5000 nM | – | – | – | C[C@@H](Nc1nc(Cl)nc2c1CCN(C(=O)C1CCOC1)CC2)c1cc(N)cc(C(F)(F)F)c1 (stereo partly drawn) [Example 7, N-[(1R)-1-[3-amino-5-(trifluoromethyl)phenyl]ethyl]-2-chloro-7-(oxolane-3-carbonyl)-5H,6H,7H,8H,9H-pyrimido[4,5-d]azepin-4-amine] | –
– | > 1000 nM | < 400 nM | < 1000 nM | C[C@@H](Nc1nc(CNC2CC2)nc2c1CN(C(=O)N1CCOCC1)C2)c1cccc(C(F)F)c1F [Example 508, 2-[(cyclopropylamino)methyl]-N-{1-[3-(difluoromethyl)-2-fluorophenyl]ethyl}-6-(morpholine-4-carbonyl)-5H,6H,7H-pyrrolo[3,4-d]pyrimidin-4-amine] | –
– | > 1000 nM | < 400 nM | < 1000 nM | COC1(C(=O)N2Cc3nc(C(N)=O)nc(N[C@H](C)c4cccc(C(F)F)c4F)c3C2)CCOCC1 [Example 510, 4-{[(1R)-1-[3-(difluoromethyl)-2-fluorophenyl]ethyl]-amino}-6-(4-methoxyoxane-4-carbonyl)-5H,6H,7H-pyrrolo[3,4-d]pyrimidine-2-carboxamide] | –
– | < 1000 nM | < 400 nM | < 1000 nM | COC1(C(=O)N2Cc3nc(Cl)nc(N[C@H](C)c4cccc(C(F)(F)CN)c4)c3C2)CCOCC1 [Example 525, N-[(1R)-1-[3-(2-amino-1,1-difluoroethyl)phenyl]ethyl]-2-chloro-6-(4-methoxyoxane-4-carbonyl)-5H,6H,7H-pyrrolo[3,4-d]pyrimidin-4-amine] | –
– | < 1000 nM | < 400 nM | < 1000 nM | COC1(C(=O)N2Cc3nc(Cl)nc(N[C@H](C)c4cccc(C(F)(F)CN)c4F)c3C2)CCOCC1 [Example 526, N-[(1R)-1-[3-(2-amino-1,1-difluoroethyl)-2-fluorophenyl]ethyl]-2-chloro-6-(4-methoxyoxane-4-carbonyl)-5H,6H,7H-pyrrolo[3,4-d]pyrimidin-4-amine] | –
– | > 1000 nM | < 400 nM | < 1000 nM | C[C@@H](Nc1nc(Cl)nc2c1CN(C(=O)N1CCOCC1)C2)c1cccc(CF)c1F [Example 527, 2-chloro-N-[(1R)-1-[2-fluoro-3-(fluoromethyl)phenyl]ethyl]-6-(morpholine-4-carbonyl)-5H,6H,7H-pyrrolo[3,4-d]pyrimidin-4-amine] | –
– | < 1000 nM | < 400 nM | < 1000 nM | C[C@@H](Nc1nc(Cl)nc2c1CN(C(=O)N1CCOCC1)C2)c1cccc(C(F)F)c1F [Example 537] | –
– | > 1000 nM | < 400 nM | < 1000 nM | C[C@@H](Nc1nc(Cl)nc2c1CN(C(=O)N1CCOCC1)C2)c1cccc(C(F)(F)C2COCCN2)c1 (stereo partly drawn) [Example 538, (2-chloro-4-(((1R)-1-(3-(difluoro(morpholin-3-yl)methyl)phenyl)ethyl)amino)-5,7-dihydro-6H-pyrrolo[3,4-d]pyrimidin-6-yl)(morpholino)methanone] | –
– | > 1000 nM | > 400 nM | < 1000 nM | C[C@@H](Nc1nc(CN2CCOCC2)nc2c1CN(C(=O)N1CCOCC1)C2)c1cccc(C(F)F)c1F [Example 539] | –

SMILES | IC50 (SOS1) | IC50 [1, 4] | Kd [2] | IC50 [3] | IC50 ([1]; PC-9, 1 h)
C[C@@H](Nc1nc(Cl)nc2c1CN(C(=O)N1CCOCC1)C2)c1cccc(C(F)F)c1Cl [Example 522, 2-chloro-N-[(1R)-1-[2-chloro-3-(difluoromethyl)phenyl]ethyl]-6-(morpholine-4-carbonyl)-5H,6H,7H-pyrrolo[3,4-d]pyrimidin-4-amine] | – | – | < 400 nM | < 1000 nM | < 1000 nM
C[C@@H](Nc1nc(Cl)nc2c1CN(C(=O)N1CCOCC1)C2)c1cccc2c1COCC2(F)F [Example 523, 2-chloro-N-[(1R)-1-(4,4-difluoro-3,4-dihydro-1H-2-benzopyran-8-yl)ethyl]-6-(morpholine-4-carbonyl)-5H,6H,7H-pyrrolo[3,4-d]pyrimidin-4-amine] | – | – | < 400 nM | < 1000 nM | < 1000 nM
C[C@@H](Nc1nc(Cl)nc2c1CN(C(=O)N1CCOCC1)C2)c1cccc(C(F)F)c1Br [Example 528, N-[(1R)-1-[2-bromo-3-(difluoromethyl)phenyl]ethyl]-2-chloro-6-(morpholine-4-carbonyl)-5H,6H,7H-pyrrolo[3,4-d]pyrimidin-4-amine] | – | – | > 400 nM | < 1000 nM | < 1000 nM
C[C@@H](Nc1nc(Cl)nc2c1C[N+](=C(N(C)C)N(C)C)C2)c1cccc(C(F)F)c1F [Example 529, 1-[2-chloro-4-[[(1R)-1-[3-(difluoromethyl)-2-fluoro-phenyl]ethyl]amino]-5,7-dihydropyrrolo[3,4-d]pyrimidin-6-ium-6-ylidene]-N,N,N′,N′-tetramethyl-methanediamine formate] | – | – | < 400 nM | < 1000 nM | > 1000 nM
